Measurements from PubChem BioAssay (NCI).
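These data come from cells grown in 96-well plates and exposed to compound for 48 hours at five concentrations. GI50 marks 50% less growth. At the TGI there is no net growth.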

Tested on: MDA-MB-468 breast
Assay: NCI tumour cell line growth inhibition, 48 h

| Compound | GI50 [nM] | TGI [nM] |
| --- | --- | --- |
| CC[N+](CC)=c1ccc2nc3c(cc(N)c4ccccc43)oc-2c1 | 21.9 | 132 |
| C=CCn1c(C)nc2cc(Nc3nc(Nc4ccc5nc(C)n(CC=C)c5c4)c4ccccc4n3)ccc21 | 203 | 521 |
| C#C[C@]1(O)CC[C@H]2[C@@H]3CC=C4c5sc(Nc6cc(Cl)ccn6)nc5CC[C@]4(C)[C@H]3CC[C@@]21C | 2190 | 6610 |
| CC1(C)C=CC[C@]2(C)[C@H]3CC[C@@H]4[C@H]5[C@H](C(=O)/C=C/c6cccnc6)CC[C@]5(CO)CC[C@@]4(C)[C@]3(C)CC[C@@H]12 | 1340 | 2880 |
| COc1cc(-c2nc3ccc(C)cc3[nH]2)ccc1OCC(=O)N=Nc1c(O)[nH]c2ccccc12 | 1750 | 3340 |
| Oc1ccc(Br)cc1Sc1cc(Br)ccc1O | 4090 | 20800 |
| COc1cc(-c2cnn(C)c2)ccc1Nc1ncc2ccnc(N[C@@H](C)C(C)(C)C)c2n1 | > 74700 | > 100000 |
| COC(=O)CCC/C=C\C[C@H]1C=CC(=O)/C1=C/C[C@@H](O)CCc1cccc(C(F)(F)F)c1 | 2010 | 5230 |
| COc1ccc(/C=C/c2cc(OC)c(OC)c(OC)c2)cc1NC(=O)/C=C/c1ccc(F)cc1 | 1780 | > 37500 |
| O=[N+]([O-])c1ccc2[nH]cc(-c3c4ccsc4cc4[nH]c5ccc([N+](=O)[O-])cc5c34)c2c1 | 805 | 2470 |
| COc1cc(/C=C/c2cc(C(F)(F)F)[nH]c(=O)n2)ccc1OCc1ccccc1F | 2970 | 14400 |
| COc1cc(OC)c(/C=C/c2ccc3ccccc3[n+]2C)c(OC)c1 | 161 | 763 |
| O=C(Nc1ccc(Cl)cc1)Nc1ccc(Cl)c(Cl)c1 | 2610 | 11300 |
| CCOc1ccc(/C=C/C(=O)c2ccccc2)cc1 | 17300 | 34100 |
| COc1cccc(-c2nc3sccn3c2-c2ccnc(NCCNC(=O)Nc3cccc(C(F)(F)F)c3)n2)c1 | 2630 | 10400 |
| CN1CCN(Cc2ccc(NC(=O)c3cncc(C#Cc4cnc(N)c5ccc(F)cc45)c3)cc2C(F)(F)F)CC1 | 1770 | 6670 |
| CCOC(=O)[C@@H](C)C[C@H](Cc1ccccc1)NC(=O)c1csc([C@@H](C[C@H](C(C)C)N(C)C(=O)[C@@H](NC(=O)[C@H]2C[C@H](O[Si](C)(C)C(C)(C)C)CCN2C)C(C)C)OC(C)=O)n1 | 75.4 | 5450 |

| Compound | GI50 [nM] | TGI [nM] |
| --- | --- | --- |
| CC1=CC[C@@H]2CC[C@]3(C)[C@H](CC[C@@H]4[C@@]5(C)CCCNC(C)(C)[C@@H]5CC[C@]43C)[C@H]2[C@@H]1C | 1680 | 3300 |
| COc1ccc2c(c1)sc1nc(-c3ccccc3)c(-c3ccsc3)n12 | 1980 | 5430 |
| Nc1c(C(=O)c2ccccc2)sc2nc(-c3cccs3)ccc12 | 200 | 910 |
| CCCCNc1nc(NC(C)(C)C)nc(NC(C)(C)C)n1 | 1490 | 34800 |
| CC(C)c1ccc(Cc2cnc(NC(=O)c3cc(Br)cs3)s2)cc1 | 1300 | 8670 |
| CCCCCCC/C=C/[C@H]1O[C@]23C(=O)C[C@@]4(C[C@@H](OC5OC(CO)C(O)C(O)C5O)C[C@@H]4[C@H]2C=C1C)OC3=O (stereo partly drawn) | 4580 | 13500 |
| O=C(Nc1cccc(C(F)(F)F)c1)c1cc(-c2ccc(F)cc2F)ccc1O | 2220 | 6840 |
| O=C(CN1CCOCC1)NNc1ncnc2ccccc12 | 3650 | 15600 |
| Cc1cc(/C=C2\SC(=Nc3ccccc3)N(C3CCCC3)C2=O)c(C)n1-c1ccc(Cl)cc1 | 48000 | > 100000 |
| COc1cc2nc(-c3ccc(C(F)(F)F)cc3)cc(OCCCN3CCOCC3)c2cc1OC | 1240 | 5710 |
| Clc1nc(Oc2ccccc2)nc(-c2cn(-c3ccccc3)c3ccccc23)n1 | 2860 | 9940 |
| CC1=CSC2=NC(c3ccc(Cl)c(Cl)c3)=CC(c3ccc(Cl)cc3)N12 (stereo not drawn) | > 100000 | > 100000 |
| Cc1ccc(C(=O)c2oc3ccc4c(C)cc(=O)oc4c3c2C)cc1 | 12100 | > 100000 |
| CC[N+](CCCCCCCCCC[N+](CC)(c1ccccn1)c1ccccn1)(c1ccccn1)c1ccccn1 | 206 | 1430 |
| C=CC(=O)N1CCCC(n2nc(-c3ccc(Oc4ccccc4)cc3)c3c(N)ncnc32)C1 (stereo not drawn) | 31.9 | 600 |
| COc1c/c(=C2/C=c3ccccc3=N2)[nH]/c1=C/c1[nH]c(C)cc1C | 311 | 1940 |
| N#CCc1nc(C#N)c(N)o1 | > 100000 | > 100000 |
